From US20220168329A1, “COMBINATORIAL DRUG TREATMENT OF CANCER” (University of Virginia Patent Foundation, priority 2019, published 2022) come the findings set out here.

In general, IC50 refers to the concentration at which inhibition is half-maximal. Lower therefore signals inhibition by little substance.

For assay [1], the system named is WT and PRMT5 KO cells. The experiment in a line: Western blot of Caspase-3 cleavage (apoptosis) in WT and PRMT5 KO cells. In kind it is cell-based, Human. To be noted: WT vs PRMT5 KO cells, increasing doses (nM). The protocol:
(§1) Cells were washed with cold PBS and lysed in RIPA buffer (Cell Signaling Technology). After centrifugation at 14,000 rpm for 15 minutes at 4° C., the supernatants were collected and the protein concentrations were measured using BCA protein assay reagent (BIO-RAD). Subsequently, equal amounts of proteins were separated in NuPAGE 4-12% Bis-Tris gradient gel (Invitrogen #NP0335) and transferred onto nitrocellulose membranes (Invitrogen #B301002). After blocking with 5% milk, the membranes were then probed at 4° C. overnight with various primary antibodies: anti-γ-H2AX (Cell Signaling), anti-phospho-Chk1 (Ser345) (Cell Signaling), anti-phospho-Chk2 (Thr68) (Cell Signaling), anti-PRMT5 (Abcam), anti-RPA1 (Abcam), anti-phospho-RPA2 (S4/S8) (Bethyl Laboratories), anti-RPA2 (Ab-2) (Calbiochem), cleaved caspase-3 (Cell Signaling), and anti-β-actin (Sigma); washed with TBST (20 mM Tris, 150 mM NaCl, 0.1% polysorbate 20; pH 7.6); and incubated with horseradish peroxidase (HRP)-conjugated secondary antibodies (Promega) at room temperature for 1 hour. Finally, after washing with TBST, the antibody-bound membranes were treated with enhanced chemiluminescent Western blot detection reagents (GE Healthcare) and visualized with an x-ray film (GE Healthcare).
In general terms: In western blotting, separated proteins are transferred to a membrane and probed.

For assay [2], the system named is HeLa DR13-9 cell line. In words: I-SceI reporter assay, homology-directed repair (HDR). Type of assay: cell-based, Human. To be noted: Gem 250 nM and/or EPZ015666 500 nM, 24 hours. Here is the method:
(§2) NHEJ and HR assays to examine the repair efficiency of I-SceI inducible-double strand breaks (DSBs) were performed using NHEJ/DsRed293B and HeLa DR13-9 cell lines, respectively, as previously described with slight modifications. Briefly, 3×10^5 cells were plated on 6-well dishes and 2 μg I-SceI expression vector […] was transfected using Lipofectamine2000 (Invitrogen). 24 hours post-transfection, the indicated amount of gemcitabine and/or EPZ015666 was incubated with cells for 24 hours. The DsRed- and GFP-expressing cells were counted in flow cytometric analysis (BD FACS Calibur and CellQuest Pro) by the FL2 and FL1 channels for NHEJ and HR repair efficiency, respectively. […] To this end, we used I-SceI endonuclease-based genetic reporters where relative efficiency of DSB repair by either pathway could be robustly quantified. […] However, exogenous expression of I-SceI leads to a DSB repair and creation of either dsRED+ or GFP+ cells, which can be quantified to assess relative NHEJ or HDR repair efficiencies by quantifying the percentage of dsRED+ or GFP+ cells upon I-SceI expression. […] We then assessed whether PRMT5 inhibitor alone or in combination with Gem results in differential NHEJ activity. […]
(In general: In a reporter assay the amount or activity of a reporter protein is the signal.)

The subject of assay [3] is PRMT5. In words: Western blot of global SDMA in cells. Type of assay: cell-based, Human. Particulars: increasing concentrations (nM). Here is the method: as §1
The subject of assay [4] is NHEJ/DsRed293B cell line. The experiment in a line: I-SceI reporter assay, NHEJ. In kind it is cell-based, Human. Particulars: Gem 250 nM and/or EPZ015666 500 nM, 24 hours. The protocol: as §2
Assay [5] deals with xenograft tumors. In words: γ-H2AX and SDMA levels in extracted tumor tissues (IHC, Western blot). In kind it is in vivo, mice. Here is the method: as §1, with “Healthcare). We also extracted tumors to analyze their morphology and molecular structure through H&E and IHC for selected markers. […] To assess whether the combination treatment abolished PRMT5 function in vivo, we evaluated the overall levels of the γ-H2AX and the symmetric […] of arginine (SDMA) in WT tumors, PRMT5 KO tumors as well as single-agent and combination-treated WT tumors.” for “Healthcare).”

The subject of assay [6] is mPanc96 and PANC-1 cells. In words: Crystal violet colony formation assay. Type of assay: cell-based, Human. The protocol:
Pancreatic cancer cells were seeded in a flat-bottom 12-well plate (Corning) at a density of 1-2×10^3 cells per well. The following day, cells were treated with gemcitabine and EPZ015666 or EPZ015938 for two weeks. Culture media were replaced every week with fresh medium in the presence of drugs. Wells were washed with PBS, then stained for 30 min with crystal violet solution (0.4% crystal violet, 10% formaldehyde, 80% methanol). After staining, wells were washed once with PBS and water. The plate was dried out overnight and imaged using a scanner. Colonies were measured and analyzed with ImageJ (National Institutes of Health).

Assay [7] relates to mPanc96 cells. In words: γ-H2AX immunofluorescence staining. Type of assay: cell-based, Human. Here is the method:
Cells grown on glass coverslips (VWR) were rinsed with PBS, and then fixed in 4% formaldehyde for 15 min. The cells were subsequently treated with 0.2% Triton X-100 in PBS for 10 min. After blocking with 2% BSA in PBS containing 5% FBS at RT for 30 minutes, cells were incubated with an appropriate primary antibody γ-H2AX (Cell Signaling) for 2 hours. Then the cells were washed with PBS and incubated for 1 hour with secondary antibody [Alexa Fluor-488 goat anti-mouse immunoglobulin G (IgG) (H+L) conjugate or anti-rabbit IgG (H+L) conjugate (Invitrogen)]. After washing with PBS, the coverslips were dried, and then reversely covered onto slides (Fisher Scientific) by adding mounting medium with 4′,6-diamidino-2-phenylindole dihydrochloride (DAPI) (Vector Laboratories). A LSM-710 confocal microscope (Zeiss) was used to obtain fluorescence images.

Assay [8] concerns mPanc96 cells. The experiment in a line: Comet assay (DNA strand breaks). Type of assay: cell-based, Human. Particulars: PRMT5 KO or PRMT5-inhibited cells treated with Gem vs WT and control-treated cells. The protocol:
The comet assay measures DNA damage in individual cells. It was performed according to the instructions of the OxiSelect Comet Assay Kit (Cell Biolabs). Briefly, microscope slides were first covered with a normal melting point agarose to create a base layer. Then, 1-2×10^5 cells were embedded into 75 μL of low-melting-point agarose at 37° C. and the gel was cast over the first agarose layer. Then slides were immersed into a lysis buffer and kept for 1 hour at 4° C. After cell lysis, the slides were electrophoresed in alkaline electrophoresis buffer (300 mM NaOH, 1 mM EDTA, pH 13). The slides were then stained with Vista Green DNA dye. Comet tails were measured using Image J.

Assay [9] has as its system WT and PRMT5 KO mPanc96 tumors. The experiment in a line: Xenograft of WT and PRMT5 KO mPanc96 cells treated with Gem. Type of assay: in vivo, nude mice. Particulars: Gem 50 mg/kg or 100 mg/kg i.p.
Experimental: To develop xenograft tumors, Control sgRNA infected WT cells and PRMT5-KO cells were subcutaneously injected into the dorsal flanks of 8 week-old nude mice, which were obtained from the Jackson Laboratory (Bar Harbor, Me., USA). When the tumors were visible (approximately 30 mm^3 in volume), the mice received respective gemcitabine treatments via intraperitoneal (i.p.) injection. After weekly monitoring, time to appearance of the tumor was recorded, and the tumor volume was measured by caliper. The tumor volume was calculated as follows: volume=longest tumor diameter×(shortest tumor diameter) 2/2. After 35 days of treatment, the mice were euthanized by CO2 inhalation, and the tumor tissues were collected for further analyses. […] Initially, we tested whether tumors formed by WT and PRMT5 KO cells were differentially sensitive to Gem treatment. To be able to better compare the tumors from these two genetic backgrounds, we injected 5×10^5 WT mPanc96 cells in the left flank and the same number of the PRMT5 KO cells in the right flank of the same mouse. This strategy enabled us to compare the two tumors grown in the same mouse. After one week of tumor formation, the mice were randomly divided into three groups where one received control, and the other two received two separate Gem doses (50 mg/kg or 100 mg/kg).
Assay [10] concerns PDAC cells. In words: Western blot of DNA damage and cell cycle checkpoint markers and RPA2. Type of assay: cell-based, Human. To be noted: time-course, KO cells compared to WT cells. Here is the method:
as §1

For assay [11], the system named is WT and PRMT5 knockout (KO) PDAC cells (mPanc96, PANC-1). The experiment in a line: MTT cell viability assay, WT vs PRMT5 KO clones. Particulars: Homo sapiens. In kind it is cell-based. Here is the method: PDX366, mPanc96, and PANC-1 cells were seeded in a flat-bottom 96-well plate (Corning) in triplicate at a density of 1-2×10^3 cells per well. The following day, cells were treated with gemcitabine (GEMZAR; Eli Lilly) and EPZ015666 (GSK3235025; SelleckChem) or EPZ015938 (GSK3326595; ChemieTek) for 4-5 days prior to MTT (3-(4,5-dimethylthiazolyl)-2,5-diphenyltetrazolium bromide) to determine effects of drugs on cell viability. Culture media were replaced with fresh RPMI, which had 10% FBS and 10% MTT (5 mg/mL) and incubated for 4 hours in a humidified (37° C., 5% CO2) incubator. 100 μL MTT solvent (10% SDS in 0.01 M HCl) was added to each well, and cells were incubated overnight. The absorbance was read at 595 nm.
To better study the role of PRMT5 in the cellular response to Gem, we generated multiple single KO clones in two additional pancreatic cancer cell lines (mPanc96 and PANC-1) (FIG. 2A). […] However, the clones with even partial PRMT5 depletion were nearly an order of magnitude more sensitive to Gem compared to wild-type (WT) clones (4-5 μM vs. ˜50 μM IC50) as measured by cell viability assay (FIG. 2B).
(Tetrazolium assays rely on reduction of a dye to a coloured formazan, in cell work by metabolically active cells.)

For assay [12], the system named is Pancreatic cancer cells. In words: BrdU incorporation flow cytometry cell cycle analysis. Type of assay: cell-based, Human. To be noted: Gem 250 nM. The protocol: Pancreatic cancer cells were treated with gemcitabine and EPZ015666 or EPZ015938, incorporated with BrdU (Sigma) for 1 hour and then fixed by 70% ethanol. BrdU staining was performed according to the manufacturer's instructions (BD Biosciences, Franklin Lakes, N.J., USA). Briefly, the fixed cells were washed with PBS and then resuspended in 2 N HCl for 20 min to denature the DNA. After washing with 0.1 M Na2B4O7, pH 8.5, to stop acid denaturation, the cells were resuspended and washed with 180 μL 0.5% polysorbate 20 (Sigma) with 1% normal goat serum (NGS) (Dako, Glostrup, Denmark) in PBS. Then, the cells were incubated with Alexa Fluor 647-conjugated anti-BrdU (mAb) (Invitrogen) for 1 hour at room temperature in the dark. After washing with PBS, the cells were resuspended in 2 μg/mL propidium iodide (PI) (Sigma) in PBS plus RNase, incubated at 37° C. for 30 min in the dark, and then analyzed by FACSCalibur flow cytometer (Becton-Dickinson, San Jose, Calif., USA).

Turning to `O=C(NC[C@H](O)CN1CCc2ccccc2C1)c1cc(NC2COC2)ncn1` [EPZ015666], in assay [1], the “apoptosis (caspase-3 cleavage)” value was “significant apoptosis (caspase-3 cleavage) selectively in WT cells but not in PRMT KO cells”. For the same compound, the HDR activity entry in [2] is reported as “significantly inhibits the HDR activity”. Also, the “global SDMA” value in assay [3] was “significantly inhibits global SDMA”. Also, the NHEJ activity result in assay [4] was “significant increase in NHEJ activity”. In addition, the “overall SDMA levels in tumors” value in assay [5] (Western blot of tumor tissues) was “lower overall levels of SDMA”.

For `CC(=O)N1CCC(Nc2cc(C(=O)NC[C@H](O)CN3CCc4ccccc4C3)ncn2)CC1` [EPZ015938], the “growth inhibition activity on colony formation” value in assay [6] (single agent, compared with the other PRMT5 inhibitor) is recorded as “substantially more growth inhibition activity”.

In the case of `Nc1ccn([C@@H]2O[C@H](CO)[C@@H](O)C2(F)F)c(=O)n1` [Gem, 2′,2′-difluoro 2′-deoxycytidine], in assay [2], the HDR activity entry was “significantly inhibits the HDR activity”. Further, the “time to strong γ-H2AX foci post Gem treatment” value in [7] (PRMT5 KO cells, Gem 250 nM) was 4 h. Besides, the “time to similar levels of γ-H2AX foci” value in assay [7] (WT cells, same concentration of Gem) lay within 48 to 72 h. Also, the “γ-H2AX foci formation levels” value in assay [7] (over 72 hours, PRMT5 KO vs WT cells, Gem treatment) is reported as “significantly higher levels of γ-H2AX”. Moreover, in [8], the comet tail length entry is on record as “significantly longer comet tail”. Also, the tumor volume result in assay [9] (PRMT5 KO tumors) was “most significant reduction of tumor volumes”; in assay [9] (WT tumors), “notable reduction of WT tumors”. In addition, the “phospho-Chk1, γ-H2AX and phospho-RPA2 activation” value in [10] was “sustained and stronger”. The IC50 was 4 to 5 µM in assay [11] (clones with even partial PRMT5 depletion (PRMT5 KO)) and approximately 50 µM in assay [11] (wild-type (WT) clones). Moreover, the NHEJ activity entry in assay [4] was “significant increase in NHEJ activity”. Also, the cell cycle position result in assay [12] (PRMT5 KO cells compared to WT cells) is “significantly higher number of G2/M cells”; in [12] (WT cells, EPZ015666 500 nM), “partial delay in cell cycle with a substantial accumulation of cells in S-phase and partial increases in G2/M cells”. Moreover, in [6] (PRMT5 KO clones compared to WT cells), the “sensitivity to Gem in longer-term colony formation” value is reported as “significantly more sensitive”. Also, the “γ-H2AX staining (IHC) in tumors” value in assay [5] (PRMT5 KO tumors vs WT tumors treated with Gem) is “significantly more γ-H2AX staining”. In addition, the γ-H2AX in tumors entry in assay [5] (Western blot, PRMT5 KO tumors) is reported as “significantly activated”.
